Source: the kinase profiling compilation of Christmann-Franck et al. (2016)
Blank lines part the entries; values can stand above or below the compound they belong to.

How the values were obtained:
Assay in all cases: radiometric filter-binding kinase assay, Kinase HotSpot
Conditions in all cases: compound 0.5 µM; ATP 10 µM
RAF1 (human) = RAF1 (human) (UniProt P04049)
CDK4 CCND3 (human) = CDK4 CCND3 (human) (UniProt P30281+P11802)
MAPK9 (human) = MAPK9 (human) (UniProt P45984)
SGK3 (human) = SGK3 (human) (UniProt Q96BR1)
PRKCI (human) = PRKCI (human) (UniProt P41743)
PTK2B (human) = PTK2B (human) (UniProt Q14289)
RPS6KA5 KD2 (human) = RPS6KA5 KD2 (human) (UniProt O75582)
MET (human) = MET (human) (UniProt P08581)
STK4 (human) = STK4 (human) (UniProt Q13043)
CDK9 CCNT1 (human) = CDK9 CCNT1 (human) (UniProt P50750+O60563)
EPHA8 (human) = EPHA8 (human) (UniProt P29322)
MAPK11 (human) = MAPK11 (human) (UniProt Q15759)
MAPK14 (human) = MAPK14 (human) (UniProt Q16539)
FER (human) = FER (human) (UniProt P16591)
ERBB2 (human) = ERBB2 (human) (UniProt P04626)
CSNK2A2 (human) = CSNK2A2 (human) (UniProt P19784)
VRK1 (human) = VRK1 (human) (UniProt Q99986)
RPS6KA4 KD2 (human) = RPS6KA4 KD2 (human) (UniProt O75676)
SGK2 (human) = SGK2 (human) (UniProt Q9HBY8)
CDK1 CCNA2 (human) = CDK1 CCNA2 (human) (UniProt P06493+P20248)
MAPK13 (human) = MAPK13 (human) (UniProt O15264)
MARK4 (human) = MARK4 (human) (UniProt Q96L34)
PBK (human) = PBK (human) (UniProt Q96KB5)
STK24 (human) = STK24 (human) (UniProt Q9Y6E0)
FLT3 (human) = FLT3 (human) (UniProt P36888)
CSNK1A1 (human) = CSNK1A1 (human) (UniProt P48729)
AXL (human) = AXL (human) (UniProt P30530)
PRKCG (human) = PRKCG (human) (UniProt P05129)
RET (human) = RET (human) (UniProt P07949)
GRK5 (human) = GRK5 (human) (UniProt P34947)
PIM3 (human) = PIM3 (human) (UniProt Q86V86)
MAPK12 (human) = MAPK12 (human) (UniProt P53778)
GRK4 (human) = GRK4 (human) (UniProt P32298)
CAMK2A (human) = CAMK2A (human) (UniProt Q9UQM7)
MAPK3 (human) = MAPK3 (human) (UniProt P27361)
GRK6 (human) = GRK6 (human) (UniProt P43250)
CHEK1 (human) = CHEK1 (human) (UniProt O14757)
CDK6 CCND3 (human) = CDK6 CCND3 (human) (UniProt P30281+Q00534)
FYN (human) = FYN (human) (UniProt P06241)
[1] = target: TYK2 JH1 catalytic (human) (UniProt P29597)
GSK3B (human) = GSK3B (human) (UniProt P49841)
GSG2 (human) = GSG2 (human) (UniProt Q8TF76)

Sequence of PTK2B (human) (Q14289 whole entry, looked up): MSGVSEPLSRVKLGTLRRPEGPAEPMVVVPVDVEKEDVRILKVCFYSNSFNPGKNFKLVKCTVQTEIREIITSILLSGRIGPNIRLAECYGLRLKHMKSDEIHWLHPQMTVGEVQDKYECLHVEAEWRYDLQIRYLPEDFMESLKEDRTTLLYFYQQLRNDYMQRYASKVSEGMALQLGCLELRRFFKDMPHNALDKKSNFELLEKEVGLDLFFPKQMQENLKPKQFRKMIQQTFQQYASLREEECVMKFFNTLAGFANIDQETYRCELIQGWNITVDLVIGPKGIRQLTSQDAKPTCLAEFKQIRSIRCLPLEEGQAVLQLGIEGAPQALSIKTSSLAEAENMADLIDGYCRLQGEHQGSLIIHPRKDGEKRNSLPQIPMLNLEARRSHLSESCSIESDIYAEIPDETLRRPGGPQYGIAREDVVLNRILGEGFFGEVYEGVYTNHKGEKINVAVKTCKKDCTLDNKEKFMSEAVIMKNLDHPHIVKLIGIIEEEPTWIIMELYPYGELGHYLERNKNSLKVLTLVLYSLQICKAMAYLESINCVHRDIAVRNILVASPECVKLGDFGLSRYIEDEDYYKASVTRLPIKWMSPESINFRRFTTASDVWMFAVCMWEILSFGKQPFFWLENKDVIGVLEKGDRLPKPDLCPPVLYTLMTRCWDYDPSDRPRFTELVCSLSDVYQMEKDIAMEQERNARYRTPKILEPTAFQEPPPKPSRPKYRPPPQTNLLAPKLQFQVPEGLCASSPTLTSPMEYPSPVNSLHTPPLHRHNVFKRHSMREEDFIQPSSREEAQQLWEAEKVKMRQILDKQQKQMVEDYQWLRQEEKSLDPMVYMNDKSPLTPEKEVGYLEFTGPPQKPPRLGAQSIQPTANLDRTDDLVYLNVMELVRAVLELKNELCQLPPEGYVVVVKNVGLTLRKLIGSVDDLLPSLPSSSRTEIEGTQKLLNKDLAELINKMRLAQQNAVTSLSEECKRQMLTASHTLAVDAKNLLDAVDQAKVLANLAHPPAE
Sequence of GRK4 (human) (P32298 whole entry, looked up): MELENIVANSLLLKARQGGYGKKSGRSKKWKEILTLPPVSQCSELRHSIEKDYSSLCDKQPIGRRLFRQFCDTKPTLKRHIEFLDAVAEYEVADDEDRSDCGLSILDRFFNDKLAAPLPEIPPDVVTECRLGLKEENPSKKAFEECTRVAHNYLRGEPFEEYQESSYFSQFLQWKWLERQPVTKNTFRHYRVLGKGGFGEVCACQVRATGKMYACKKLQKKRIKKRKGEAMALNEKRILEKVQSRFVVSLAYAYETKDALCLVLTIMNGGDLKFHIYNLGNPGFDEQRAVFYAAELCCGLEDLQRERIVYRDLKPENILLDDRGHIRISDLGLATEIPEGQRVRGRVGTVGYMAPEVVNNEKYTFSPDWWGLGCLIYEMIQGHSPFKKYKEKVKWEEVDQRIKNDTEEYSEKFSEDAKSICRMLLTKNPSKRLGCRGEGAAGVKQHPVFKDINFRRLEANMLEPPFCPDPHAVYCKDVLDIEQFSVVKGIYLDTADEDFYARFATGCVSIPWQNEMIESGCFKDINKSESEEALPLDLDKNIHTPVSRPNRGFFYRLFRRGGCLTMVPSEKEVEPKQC
Sequence of RPS6KA5 KD2 (human) (O75582 whole entry, looked up): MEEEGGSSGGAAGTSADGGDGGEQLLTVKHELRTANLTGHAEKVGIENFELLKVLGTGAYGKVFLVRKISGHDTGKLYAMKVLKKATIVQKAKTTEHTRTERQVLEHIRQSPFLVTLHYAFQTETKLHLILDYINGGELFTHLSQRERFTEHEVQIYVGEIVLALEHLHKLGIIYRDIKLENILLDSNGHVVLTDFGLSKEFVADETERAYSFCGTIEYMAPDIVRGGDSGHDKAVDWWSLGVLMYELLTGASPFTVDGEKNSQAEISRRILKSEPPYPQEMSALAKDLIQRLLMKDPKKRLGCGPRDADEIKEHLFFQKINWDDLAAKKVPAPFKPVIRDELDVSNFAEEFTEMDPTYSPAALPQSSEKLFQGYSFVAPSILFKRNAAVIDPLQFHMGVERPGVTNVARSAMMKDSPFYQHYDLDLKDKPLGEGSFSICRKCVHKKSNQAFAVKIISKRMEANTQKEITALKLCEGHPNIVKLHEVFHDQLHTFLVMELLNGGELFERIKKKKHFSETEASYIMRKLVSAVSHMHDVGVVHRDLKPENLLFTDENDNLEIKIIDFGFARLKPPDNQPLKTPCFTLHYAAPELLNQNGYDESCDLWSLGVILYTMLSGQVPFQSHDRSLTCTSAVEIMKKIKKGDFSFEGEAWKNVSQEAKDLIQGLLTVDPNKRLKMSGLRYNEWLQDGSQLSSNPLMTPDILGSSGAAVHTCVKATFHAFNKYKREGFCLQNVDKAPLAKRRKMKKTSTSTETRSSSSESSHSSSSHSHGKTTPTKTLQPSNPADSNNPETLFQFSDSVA
Sequence of GSK3B (human) (P49841 whole entry, looked up): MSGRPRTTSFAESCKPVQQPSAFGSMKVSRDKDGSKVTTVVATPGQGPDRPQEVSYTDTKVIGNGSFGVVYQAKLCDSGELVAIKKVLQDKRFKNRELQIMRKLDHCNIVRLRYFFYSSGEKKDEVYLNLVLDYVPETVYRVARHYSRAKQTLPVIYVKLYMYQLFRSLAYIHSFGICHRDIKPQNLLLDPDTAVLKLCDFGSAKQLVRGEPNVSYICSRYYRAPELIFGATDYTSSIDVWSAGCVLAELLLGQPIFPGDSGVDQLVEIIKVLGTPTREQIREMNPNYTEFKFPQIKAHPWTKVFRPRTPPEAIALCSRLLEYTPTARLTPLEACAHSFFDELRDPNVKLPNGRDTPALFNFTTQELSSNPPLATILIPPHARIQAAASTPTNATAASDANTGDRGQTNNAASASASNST
Sequence of MAPK11 (human) (Q15759 whole entry, looked up): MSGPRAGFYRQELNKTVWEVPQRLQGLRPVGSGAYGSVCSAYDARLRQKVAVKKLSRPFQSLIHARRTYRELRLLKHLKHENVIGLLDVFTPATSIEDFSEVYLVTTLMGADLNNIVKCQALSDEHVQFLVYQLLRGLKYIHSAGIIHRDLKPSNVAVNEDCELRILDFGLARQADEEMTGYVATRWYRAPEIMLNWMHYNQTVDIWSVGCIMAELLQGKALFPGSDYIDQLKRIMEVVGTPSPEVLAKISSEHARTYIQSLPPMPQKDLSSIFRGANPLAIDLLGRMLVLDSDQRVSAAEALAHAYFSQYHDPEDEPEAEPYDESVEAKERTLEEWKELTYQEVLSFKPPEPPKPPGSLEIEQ
Sequence of VRK1 (human) (Q99986 whole entry, looked up): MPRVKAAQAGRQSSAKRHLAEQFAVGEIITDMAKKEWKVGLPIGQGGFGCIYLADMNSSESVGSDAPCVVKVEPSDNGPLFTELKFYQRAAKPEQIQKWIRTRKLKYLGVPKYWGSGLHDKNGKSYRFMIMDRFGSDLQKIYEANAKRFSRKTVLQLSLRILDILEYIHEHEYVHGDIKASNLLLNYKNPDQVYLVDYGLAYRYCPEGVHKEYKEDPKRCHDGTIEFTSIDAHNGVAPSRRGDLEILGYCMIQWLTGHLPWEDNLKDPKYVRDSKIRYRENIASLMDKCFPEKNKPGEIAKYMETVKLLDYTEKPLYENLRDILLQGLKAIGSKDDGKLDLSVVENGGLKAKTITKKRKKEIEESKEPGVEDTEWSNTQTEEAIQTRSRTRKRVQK
Sequence of STK24 (human) (Q9Y6E0 whole entry, looked up): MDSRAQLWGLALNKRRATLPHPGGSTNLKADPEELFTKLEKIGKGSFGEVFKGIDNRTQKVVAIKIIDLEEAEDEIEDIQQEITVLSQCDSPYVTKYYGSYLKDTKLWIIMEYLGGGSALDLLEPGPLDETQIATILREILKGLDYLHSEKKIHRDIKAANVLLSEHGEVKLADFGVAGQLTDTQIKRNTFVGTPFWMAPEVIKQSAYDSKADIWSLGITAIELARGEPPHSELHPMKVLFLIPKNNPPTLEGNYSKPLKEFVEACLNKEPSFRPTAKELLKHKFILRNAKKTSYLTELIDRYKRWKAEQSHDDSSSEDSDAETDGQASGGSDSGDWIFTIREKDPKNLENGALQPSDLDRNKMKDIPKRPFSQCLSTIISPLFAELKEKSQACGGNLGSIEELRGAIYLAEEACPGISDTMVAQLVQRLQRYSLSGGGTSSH

- residual activity (RAF1 (human)): 84%
- residual activity (CDK4 CCND3 (human)): 85.7%
- residual activity (MAPK9 (human)): 67.5%
- residual activity (SGK3 (human)): 107%
- residual activity (PRKCI (human)): 94.4%
- residual activity (PTK2B (human)): 98.7%
- residual activity (RPS6KA5 KD2 (human)): 98.9%
- residual activity (MET (human)): 105%
- residual activity (STK4 (human)): 92.2%
- residual activity (CDK9 CCNT1 (human)): 23.3%
- residual activity (EPHA8 (human)): 98.5%
- residual activity (MAPK11 (human)): 101%
- residual activity (MAPK14 (human)): 89.1%
- residual activity (FER (human)): 91%
- residual activity (ERBB2 (human)): 104%
- residual activity (CSNK2A2 (human)): 27.1%
- residual activity (VRK1 (human)): 94.1%
- residual activity (RPS6KA4 KD2 (human)): 107%
- residual activity (SGK2 (human)): 100%
- residual activity (CDK1 CCNA2 (human)): 83%
- residual activity (MAPK13 (human)): 100%
- residual activity (MARK4 (human)): 91.6%
- residual activity (PBK (human)): 99.7%
- residual activity (STK24 (human)): 95.6%
- residual activity (FLT3 (human)): 58.2%
- residual activity (CSNK1A1 (human)): 80%
- residual activity (AXL (human)): 106%
- residual activity (PRKCG (human)): 92.2%
- residual activity (RET (human)): 70.1%
- residual activity (GRK5 (human)): 93.8%
- residual activity (PIM3 (human)): 3.74%
- residual activity (MAPK12 (human)): 96.7%
- residual activity (GRK4 (human)): 103%
- residual activity (CAMK2A (human)): 105%
- residual activity (MAPK3 (human)): 99.4%
- residual activity (GRK6 (human)): 87.6%
- residual activity (CHEK1 (human)): 94.6%
- residual activity (CDK6 CCND3 (human)): 94.6%
- residual activity (FYN (human)): 93.1%
- residual activity [1]: 83.2%
- residual activity (GSK3B (human)): 6.2%
- residual activity (GSG2 (human)): 31%
SMILES: N#C/C(=C1/Nc2ccccc2S1)c1ccnc(NCCc2cccnc2)n1

SMILES: CCOc1cc2ncnc(Nc3cccc(Br)c3)c2cc1OCC
- residual activity (RAF1 (human)): 91.6%
- residual activity (CDK4 CCND3 (human)): 97.8%
- residual activity (MAPK9 (human)): 98.5%
- residual activity (SGK3 (human)): 96.7%
- residual activity (PRKCI (human)): 100%
- residual activity (PTK2B (human)): 95.8%
- residual activity (RPS6KA5 KD2 (human)): 95.8%
- residual activity (MET (human)): 78.6%
- residual activity (STK4 (human)): 98.5%
- residual activity (CDK9 CCNT1 (human)): 98.5%
- residual activity (EPHA8 (human)): 87.3%
- residual activity (MAPK11 (human)): 89%
- residual activity (MAPK14 (human)): 87.5%
- residual activity (FER (human)): 90.7%
- residual activity (ERBB2 (human)): 13.8%
- residual activity (CSNK2A2 (human)): 93.8%
- residual activity (VRK1 (human)): 101%
- residual activity (RPS6KA4 KD2 (human)): 95.4%
- residual activity (SGK2 (human)): 106%
- residual activity (CDK1 CCNA2 (human)): 94.7%
- residual activity (MAPK13 (human)): 96.7%
- residual activity (MARK4 (human)): 99.2%
- residual activity (PBK (human)): 102%
- residual activity (STK24 (human)): 97.6%
- residual activity (FLT3 (human)): 29%
- residual activity (CSNK1A1 (human)): 98.6%
- residual activity (AXL (human)): 89.9%
- residual activity (PRKCG (human)): 83%
- residual activity (RET (human)): 39.3%
- residual activity (GRK5 (human)): 104%
- residual activity (PIM3 (human)): 105%
- residual activity (MAPK12 (human)): 105%
- residual activity (GRK4 (human)): 96.2%
- residual activity (CAMK2A (human)): 103%
- residual activity (MAPK3 (human)): 113%
- residual activity (GRK6 (human)): 96%
- residual activity (CHEK1 (human)): 115%
- residual activity (CDK6 CCND3 (human)): 104%
- residual activity (FYN (human)): 78.9%
- residual activity [1]: 107%
- residual activity (GSK3B (human)): 96.8%
- residual activity (GSG2 (human)): 90.6%

SMILES: N#Cc1c(NC(=O)c2cccc3ccccc23)sc2c1CCCC2
- residual activity (RAF1 (human)): 92.9%
- residual activity (CDK4 CCND3 (human)): 97.1%
- residual activity (MAPK9 (human)): 33.9%
- residual activity (SGK3 (human)): 107%
- residual activity (PRKCI (human)): 95.9%
- residual activity (PTK2B (human)): 108%
- residual activity (RPS6KA5 KD2 (human)): 99.6%
- residual activity (MET (human)): 109%
- residual activity (STK4 (human)): 93.1%
- residual activity (CDK9 CCNT1 (human)): 100%
- residual activity (EPHA8 (human)): 104%
- residual activity (MAPK11 (human)): 104%
- residual activity (MAPK14 (human)): 98.1%
- residual activity (FER (human)): 99.7%
- residual activity (ERBB2 (human)): 97.6%
- residual activity (CSNK2A2 (human)): 92.2%
- residual activity (VRK1 (human)): 87.2%
- residual activity (RPS6KA4 KD2 (human)): 111%
- residual activity (SGK2 (human)): 101%
- residual activity (CDK1 CCNA2 (human)): 92.1%
- residual activity (MAPK13 (human)): 109%
- residual activity (MARK4 (human)): 101%
- residual activity (PBK (human)): 116%
- residual activity (STK24 (human)): 90.3%
- residual activity (FLT3 (human)): 111%
- residual activity (CSNK1A1 (human)): 91.1%
- residual activity (AXL (human)): 106%
- residual activity (PRKCG (human)): 95.4%
- residual activity (RET (human)): 105%
- residual activity (GRK5 (human)): 98.2%
- residual activity (PIM3 (human)): 95.3%
- residual activity (MAPK12 (human)): 95.6%
- residual activity (GRK4 (human)): 110%
- residual activity (CAMK2A (human)): 104%
- residual activity (MAPK3 (human)): 97.1%
- residual activity (GRK6 (human)): 108%
- residual activity (CHEK1 (human)): 104%
- residual activity (CDK6 CCND3 (human)): 99%
- residual activity (FYN (human)): 102%
- residual activity [1]: 100%
- residual activity (GSK3B (human)): 97.5%
- residual activity (GSG2 (human)): 99%

SMILES: COc1cc2ncnc(Nc3ccc(O)c(Br)c3)c2cc1OC
- residual activity (RAF1 (human)): 92.1%
- residual activity (CDK4 CCND3 (human)): 110%
- residual activity (MAPK9 (human)): 88.4%
- residual activity (SGK3 (human)): 94.5%
- residual activity (PRKCI (human)): 94%
- residual activity (PTK2B (human)): 86.9%
- residual activity (RPS6KA5 KD2 (human)): 93.4%
- residual activity (MET (human)): 96.4%
- residual activity (STK4 (human)): 90%
- residual activity (CDK9 CCNT1 (human)): 91.4%
- residual activity (EPHA8 (human)): 88.3%
- residual activity (MAPK11 (human)): 90.1%
- residual activity (MAPK14 (human)): 87.3%
- residual activity (FER (human)): 85.2%
- residual activity (ERBB2 (human)): 33.1%
- residual activity (CSNK2A2 (human)): 89.2%
- residual activity (VRK1 (human)): 86.4%
- residual activity (RPS6KA4 KD2 (human)): 93.8%
- residual activity (SGK2 (human)): 95.1%
- residual activity (CDK1 CCNA2 (human)): 101%
- residual activity (MAPK13 (human)): 102%
- residual activity (MARK4 (human)): 92.4%
- residual activity (PBK (human)): 101%
- residual activity (STK24 (human)): 91.7%
- residual activity (FLT3 (human)): 6.34%
- residual activity (CSNK1A1 (human)): 89.6%
- residual activity (AXL (human)): 89.4%
- residual activity (PRKCG (human)): 94.1%
- residual activity (RET (human)): 21.4%
- residual activity (GRK5 (human)): 101%
- residual activity (PIM3 (human)): 73.3%
- residual activity (MAPK12 (human)): 92.8%
- residual activity (GRK4 (human)): 105%
- residual activity (CAMK2A (human)): 98%
- residual activity (MAPK3 (human)): 97%
- residual activity (GRK6 (human)): 104%
- residual activity (CHEK1 (human)): 92.8%
- residual activity (CDK6 CCND3 (human)): 102%
- residual activity (FYN (human)): 80.4%
- residual activity [1]: 96.5%
- residual activity (GSK3B (human)): 92%
- residual activity (GSG2 (human)): 84.8%
